Data set [1] can be described thus: Determination of the acute toxicity (LD50, oral, mice). Particulars: mouse, in vivo, oral administration. Here is the method:
(3) Determination of the acute toxicity
The LD50 was evaluated after oral administration of the product to mice.

For data set [2], the system named is gastric secretions. The data set is described as follows: Determination of the anti-gastric secretion activity (Shay technique, pylorus ligation, rats). The class given is in vivo. As to conditions: pylorus ligated, dose 10 mg/kg, intraduodenal, 3 hours, total acidity of gastric juice. As to the method: (1) Determination of the anti-gastric secretion activity
The technique used is described by H. SHAY et al. in Gastroenterology 5, 43, 1945.
Male rats were used having a weight of about 200 g each (10 animals per lot), and kept without food for 48 hours but enjoying ad libitum 8% glucose solution. After the rats were slightly anesthetized with ether the pylorus of each was ligated. At the end of the operation, the product to be tested was administered intraduodenally in different doses or, for the control animals 0.5% carboxymethyl cellulose solution was administered, whereupon the abdominal incision is sutured.
Three hours later, the animals were sacrificed and their stomachs removed after ligating the esophagus. The gastric juice was removed and centrifuged. The volume of gastric juice obtained was then measured and the total acidity of the gastric juice was determined by titrating a […] of gastric juice to a pH of 7 by means of 1/10 N aqueous sodium hydroxide solution.
The percentages of variation in total acidity of the gastric secretions between control and test animals were calculated.

The test system of data set [3] is stomach ulcers. Nature of the data set: Determination of the anti-ulcer activity (stress ulcer, rats). Particulars: female rats, stress and cold (8° C., two hours), dose 10 mg/kg by esophageal tube two hours before. In kind it is in vivo. Here is the method:
(2) Determination of the anti-ulcer activity
The technique consists in inducing stomach ulcers by stress in rats (stress and cold). The technique used is described by E. C. SENAY and R. J. LEVINE, Proc. Soc. Exp. Biol. 124, 1221 (1967).
Female rats weighing about 150 g (5 animals per lot) which have fasted for 48 hours with water ad libitum and glucose solution for 8 hours were used. By an esophageal tube, the animals were administered the test compound, or a solution of 0.5% carboxymethyl cellulose solution for the control animals. Two hours later, the animals were bundled in a jacket of netting. Their paws were bound and the entire unit was placed in a refrigerator at 8° C. for two hours. The rats were released and killed with ether.
Their stomachs were removed, opened along the greater curvature and examined by binocular magnifier. The seriousness of ulceration was clasified from 0 to 3 for each stomach.
For each lot of rats the average intensity of the ulcerations was calculated. The degree of ulceration for control and test animals was determined and the variation expressed in percentage.

On to `CN(C)c1ccc(C(=O)/C=C/C(=O)O)cc1` [Example 4, (E) 4-(4-N,N-dimethylaminophenyl) 4-oxobuten-2-oic acid], for which the LD50 in data set [1] turned out to be 750 mg/kg. The “Anti-secretion activity (% variation referred to the controls): Acid Concentration” value in data set [2] is recorded as -58%. For the same compound, the “Anti-ulcer activity (% variation referred to the controls): Ulceration” value in data set [3] is listed as -61%.

In the case of `CCOC(=O)Nc1ccc(C(=O)/C=C/C(=O)O)cc1` [Example 1, (E) 4-(4-carbethoxyaminophenyl)-4-oxobuten-2-oic acid], the LD50 in data set [1] was more than 1000 mg/kg. For the same compound, in data set [2], the “Anti-secretion activity (% variation referred to the controls): Acid Concentration” value was -55%. Further, in data set [3], the “Anti-ulcer activity (% variation referred to the controls): Ulceration” value is listed as -41%.

Broadly, the LD50 is the dose at which mortality reaches 50%.
